We go through 4 compounds from patent US20250376498A1, “FUSION PROTEINS COMPRISING AN IMPROVED GLP-1 RECEPTOR AGONIST AND USES THEREOF” (Guangzhou Innogen Pharmaceutical Group Co., Ltd., priority 2022, published 2025).

Like-named read-outs stand apart in the source and are kept apart here.

For data set [1] the following is noted: cited from earlier work.
Data set [2] in a line: Determination of oxidation levels by LC-MS/MS. The data set is classed as physicochemical. The method, then:
Following the protein oxidation measurement method described in Example 2 or by referring to Bettinger et al., the oxidation levels were determined. It was observed that the GLP-1 fusion protein YN-011 of the present invention was not oxidized at position W31, whereas the oxidation level of […] at the same position exceeded 5%. The oxidation occurred at the location indicated by the rectangular box in the structure of W31.

A further data set deals with db/db mice. The data set is described as follows: Multiple subcutaneous injections in db/db mice (type 2 diabetes model). The data set is classed as in vivo. Particulars: db/db mice. The method, then: The impact of multiple subcutaneous injections of YN-011 on reducing blood glucose levels was evaluated in db/db mice (Jackson Laboratories, 000642). The mice were kept under normal lighting conditions (12 hours light/12 hours dark) and at room temperature, with free access to food (normal rodent chow) and water. Db/db mice lack leptin receptors and spontaneously develop obesity, hyperglycemia, and pancreatic B-cell atrophy by 4 weeks of age.
Sixty affected db/db mice (33-45g) were divided into six groups of 10 mice each (5 males and 5 females) and administered 0 (PBS buffer control), 0.15, 0.3, 0.6, or 1.2 mg/kg of YN-011, or 0.3 mg/kg of Degludec via subcutaneous injection. Another group of wild-type mice (17-22g) with the same genetic background served as the normal control. The administration frequency was once every 3 days (Q3D), with a total of 9 doses administered over a period of 26 days. […] The duration of the hypoglycemic effect ranged from 34 to 72 hours within the dose range of 0.15-1.2 mg/kg.

The conditions of data set [3]: marketed drugs, refs [22], [24]; cited from earlier work.
The conditions of data set [4]: cited from earlier work. This is another data set of the same source.
Setting [5] is: dulaglutide 1.5 mg, 26 weeks (Shi et al.).
Setting [6] is: dulaglutide 1.5 mg in combination with metformin, 40 weeks (Dungan et al.).
[7] abbreviates: semaglutide 1 mg, 30 weeks (Sorli et al.).

As to `CCCCCCCCCCCCCCCC(=O)N[C@@H](CCC(=O)NCCCC[C@H](NC(=O)[C@H](C)NC(=O)[C@H](C)NC(=O)[C@H](CCC(N)=O)NC(=O)CNC(=O)[C@H](CCC(=O)O)NC(=O)[C@H](CC(C)C)NC(=O)[C@H](Cc1ccc(O)cc1)NC(=O)[C@H](CO)NC(=O)[C@H](CO)NC(=O)[C@@H](NC(=O)[C@H](CC(=O)O)NC(=O)[C@H](CO)NC(=O)[C@@H](NC(=O)[C@H](Cc1ccccc1)NC(=O)[C@@H](NC(=O)CNC(=O)[C@H](CCC(=O)O)NC(=O)[C@H](C)NC(=O)[C@@H](N)Cc1cnc[nH]1)[C@@H](C)O)[C@@H](C)O)C(C)C)C(=O)N[C@@H](CCC(=O)O)C(=O)N[C@@H](Cc1ccccc1)C(=O)N[C@H](C(=O)N[C@@H](C)C(=O)N[C@@H](Cc1c[nH]c2ccccc12)C(=O)N[C@@H](CC(C)C)C(=O)N[C@H](C(=O)N[C@@H](CCCNC(=N)N)C(=O)NCC(=O)N[C@@H](CCCNC(=N)N)C(=O)NCC(=O)O)C(C)C)[C@@H](C)CC)C(=O)O` [liraglutide], the incidence of nausea in data set [1] (liraglutide 1 mg, 24 weeks (Shuai et al.)) was 5.6%; in data set [1] (liraglutide 3 mg, 24 weeks (Shuai et al.)), 10%.
With Degludec [reference compound], in data set [2], the “oxidation level at position M253” value was “exceeding 5%” and the “oxidation level at position W31” value was “exceeded 5%”. For the same compound, the “average rate of fasting blood glucose reduction” value in the data set on db/db mice (0.3 mg/kg Q3D sc, average over measurement time points) was 63.6%. Besides, in the data set with db/db mice (Q3D sc, YN-011 all dose groups (P<0.001), Degludec 0.3 mg/kg), the “fasting blood glucose levels versus model control group” value is recorded as “significant decrease”.
In the case of “Dulaglutide: DPP-IV protected GLP-1 analog fused with an IgG4/Fc fragment”, the “half-life / elimination half-life” value in data set [3] is 113 to 132 h. For the same compound, the incidence of hypoglycemia in data set [1] (dulaglutide 0.75 mg, 26 weeks (Shi et al.)) is 4.1%. In addition, in data set [1] (setting [5]), the incidence of hypoglycemia is listed as 6.3%, the incidence of nausea is on record as 9.5% and the “reduction in HbA1c levels” value is 1.46%. In data set [4] (setting [6]), the incidence of hypoglycemia is given as 9%, the incidence of nausea is 20%, the “reduction in FPG levels” value is 1.93% and the “reduction in HbA1c levels” value is 1.42%.
Regarding Semaglutide, in data set [3], the “half-life / elimination half-life” value is 137 to 161 h. The incidence of nausea was 20% in data set [1] (semaglutide 0.5 mg, 30 weeks (Sorli et al.)); 24% in data set [1] (setting [7]); 13.4% in data set [4] (semaglutide 1 mg in combination with metformin, 30 weeks (Ji et al.)). Moreover, the “reduction in HbA1c levels” value in data set [1] (setting [7]) is 1.55%.
